# Results reported in patent US20100278835A1, “NOVEL COMPOUNDS 660” (ASTRAZENECA UK LIMITED, priority 2009, published 2010).
# Assays:
# Thermodynamic solubility = type: physicochemical
# Procedure: A known amount of the test compound was stirred in 0.1M phosphate buffer pH 7.4 at constant temperature (25° C.) for 24 h. The supernatant was then separated from un-dissolved material by double centrifugation, and subsequently analysed and quantified against a standard of known concentration in DMSO using generic HPLC-UV methodology coupled with mass spectral peak identification. Data are also included for a reference quinazolin-2,4-dione derivative disclosed in WO 03/053344.
# RSV RSS strain = assay: ELISA assay of antiviral activity against RSV (reduction in RSV protein expression); type: cell-based; details: Hep-2 cells infected with RSV RSS strain, multiplicity of infection 0.02, 3 days, concentration required to inhibit RSV protein expression by 50%
# Procedure: The antiviral activity of these compounds against RSV was determined in an ELISA assay. […] ELISA assays were set up by seeding 96-well plates with 5×10^3 Hep-2 cells per well in 100 μl DMEM containing 10% FBS for 24 h. Compound dilutions were prepared in 0.5% DMSO and 50 μl/well was added to the assay plates, the plates were incubated at 37° C. in 5% CO2 for one hour. Cells were infected with 50 μl/well RSV RSS strain at a multiplicity of infection of 0.02 and were incubated at 37° C. in 5% CO2 for 3 days. Cells were then fixed and permeabilised with 75%/25% methanol acetone and blocked with 2% Marvel™, 0.05% Tween for one hour. Plates were then incubated in the presence of a 1:4000 dilution of […] polyclonal antibody (Millipore, AB1128) followed by a 1:1000 dilution of rabbit anti-goat, horseradish peroxidase (DAKO, PO449) labelled secondary antibody. The plates were developed with O-phenylenediamine in the presence of hydrogen peroxide. The antiviral activity of the compounds is presented as an IC50, the concentration required to inhibit RSV protein expression by 50%.
# [1] = aqueous buffer, thermodynamic from solid, 0.1M phosphate buffer pH 7.4, 25° C., 24 h, HPLC-UV
# [2] = human respiratory syncytial virus, 72 h
compound,measurement,setting,value
COCCn1c(=O)c2ccccc2n(Cc2nc3cc(CN)ccc3n2CCC(C)C)c1=O [reference compound],solubility thermodynamic at 24 h,Thermodynamic solubility; [1],36 µM
"NCc1ccc2c(c1)nc(CN1C(=O)N(C3CC3)Cc3ccccc31)n2CCCC(F)(F)F [Example 28, 1-[[5-(Aminomethyl)-1-(4,4,4-trifluorobutyl)benzimidazol-2-yl]methyl]-3-cyclopropyl-4H-quinazolin-2-one]",solubility thermodynamic at 24 h,Thermodynamic solubility; [1],289 µM
same,IC50,RSV RSS strain; [2],0.5 nM
"CC(C)CCn1c(CN2C(=O)N(C3CC3)C(C)c3ccccc32)nc2cc(CN)ccc21 (stereo not drawn) [Example 20, 1-[[5-(aminomethyl)-1-isopentyl-benzimidazol-2-yl]methyl]-3-cyclopropyl-4-methyl-4H-quinazolin-2-one]",solubility thermodynamic at 24 h,Thermodynamic solubility; [1],654 µM
same,IC50,RSV RSS strain; [2],9.4 nM
"CC(C)CCn1c(CN2C(=O)N(C)Cc3ccccc32)nc2cc(CN)ccc21 [Example 5, 1-[[5-(aminomethyl)-1-isopentyl-benzimidazol-2-yl]methyl]-3-methyl-4H-quinazolin-2-one]",solubility thermodynamic at 24 h,Thermodynamic solubility; [1],2290 µM
same,IC50,RSV RSS strain; [2],8.9 nM
"CC(C)CCn1c(CN2C(=O)N(C3CC3)Cc3ccccc32)nc2cc(C(=N)N)ccc21 [Example 35, 2-[(3-cyclopropyl-2-oxo-4H-quinazolin-1-yl)methyl]-1-isopentyl-benzimidazole-5-carboxamidine]",solubility thermodynamic at 24 h,Thermodynamic solubility; [1],808 µM
same,IC50,RSV RSS strain; [2],3.2 nM
"CC(C)CCn1c(CN2C(=O)N(C3CC3)Cc3ccccc32)nc2cc(CN)ccc21 [Example 7, 1-[[5-(Aminomethyl)-1-isopentyl-benzimidazol-2-yl]methyl]-3-cyclopropyl-4H-quinazolin-2-one]",solubility thermodynamic at 24 h,Thermodynamic solubility; [1],2300 µM
same,IC50,RSV RSS strain; [2],1.7 nM
"Cc1cc2c(cc1CN)nc(CN1C(=O)N(C3CC3)Cc3ccccc31)n2CCC(C)C [Example 46, 1-[[5-(Aminomethyl)-1-isopentyl-6-methyl-benzimidazol-2-yl]methyl]-3-cyclopropyl-4H-quinazolin-2-one]",solubility thermodynamic at 24 h,Thermodynamic solubility; [1],831 µM
same,IC50,RSV RSS strain; [2],1.5 nM
"1-[[5-(aminomethyl)-1-isopentyl-benzimidazol-2-yl]methyl]-3-cyclopropyl-4,4-dimethyl-quinazolin-2-one [Example 21]",solubility thermodynamic at 24 h,Thermodynamic solubility; pH 7.4,1050 µM
same,IC50,RSV RSS strain,57 nM
CC(C)CCn1c(Cn2c(=O)n(C)c(=O)c3ccccc32)nc2cc(CN)ccc21 [reference compound],solubility thermodynamic at 24 h,Thermodynamic solubility; [1],16 µM
CC(C)CCn1c(Cn2c(=O)n(C3CC3)c(=O)c3ccccc32)nc2cc(CN)ccc21 [reference compound],solubility thermodynamic at 24 h,Thermodynamic solubility; [1],70 µM
1-[[5-[(3-aminopropylamino)methyl]-1-isopentyl-benzimidazol-2-yl]methyl]-3-methyl-4H-quinazolin-2-one [Example 31],IC50,RSV RSS strain,23 nM
"CC1c2ccccc2N(Cc2nc3cc(C(=N)N)ccc3n2CCCC(F)(F)F)C(=O)N1C1CC1 (stereo not drawn) [Example 42, 2-[(3-cyclopropyl-4-methyl-2-oxo-4H-quinazolin-1-yl)methyl]-1-(4,4,4-trifluorobutyl)benzimidazole-5-carboxamidine]",IC50,RSV RSS strain; [2],11.8 nM
NCc1ccc2c(c1)nc(Cn1c(=O)n(C3CC3)c(=O)c3ccccc31)n2CCCC(F)(F)F [reference compound],solubility thermodynamic at 24 h,Thermodynamic solubility; [1],90 µM
"CC1(C)c2ccccc2N(Cc2nc3cc(/C(N)=N/O)ccc3n2CCCC(F)(F)F)C(=O)N1C1CC1 [Example 45, 2-[(3-cyclopropyl-4,4-dimethyl-2-oxo-quinazolin-1-yl)methyl]-N′-hydroxy-1-(4,4,4-trifluorobutyl)benzimidazole-5-carboxamidine]",IC50,RSV RSS strain; [2],> 1000 nM
"CC(C)CCn1c(CN2C(=O)N(C3CC3)C(C)c3ccccc32)nc2cc(C(=N)N)ccc21 (stereo not drawn) [Example 36, 2-[(3-cyclopropyl-4-methyl-2-oxo-4H-quinazolin-l-yl)methyl]-1-isopentyl-benzimidazole-5-carboxamidine]",IC50,RSV RSS strain,8.4 nM
"COCCN1Cc2ccccc2N(Cc2nc3cc(CN)ccc3n2CCC(C)C)C1=O [Example 13, 1-[[5-(aminomethyl)-1-isopentyl-benzimidazol-2-yl]methyl]-3-(2-methoxyethyl)-4H-quinazolin-2-one]",solubility thermodynamic at 24 h,Thermodynamic solubility; [1],1560 µM
same,IC50,RSV RSS strain; [2],101 nM
"CCCN1Cc2ccccc2N(Cc2nc3cc(CN)ccc3n2CCC(C)C)C1=O [Example 6, 1-[[5-(aminomethyl)-1-isopentyl-benzimidazol-2-yl]methyl]-3-propyl-4H-quinazolin-2-one]",IC50,RSV RSS strain; [2],1.2 nM
"CC(C)CCn1c(CN2C(=O)N(CC3CC3)Cc3ccccc32)nc2cc(CN)ccc21 [Example 16, 1-[[5-(aminomethyl)-1-isopentyl-benzimidazol-2-yl]methyl]-3-(cyclopropylmethyl)-4H-quinazolin-2-one]",IC50,RSV RSS strain; [2],5.9 nM
2-[(3-cyclopropyl-2-oxo-4H-quinazolin-1-yl)methyl]-N′-hydroxy-1-isopentyl-benzimidazole-5-carboxamidine [Example 38],IC50,RSV RSS strain,88.9 nM
"N=C(N)c1ccc2c(c1)nc(CN1C(=O)N(C3CC3)Cc3ccccc31)n2CCCC(F)(F)F [Example 41, 2-[(3-cyclopropyl-2-oxo-4H-quinazolin-1-yl)methyl]-1-(4,4,4-trifluorobutyl)benzimidazole-5-carboxamidine]",IC50,RSV RSS strain; [2],1.6 nM
"CC(C)CCn1c(CN2C(=O)N(C3CC3)Cc3c(F)cccc32)nc2cc(CN)ccc21 [Example 23, 1-[[5-(aminomethyl)-1-isopentyl-benzimidazol-2-yl]methyl]-3-cyclopropyl-5-fluoro-4H-quinazolin-2-one]",solubility thermodynamic at 24 h,Thermodynamic solubility; [1],242 µM
same,IC50,RSV RSS strain; [2],7.7 nM
